Consider 87 molecules from a melting point compilation (Tetko et al.; mined from patent text by program, amines drawn as free bases though some values may be those of a salt).

By melting point is commonly meant the temperature of the solid-liquid transition. Consider `CC(C)(C)OC(=O)NCCCSc1ccncc1`, for which the melting point is 72 to 74 °C.

Molecule `COc1ccc(-c2ccc(C(=O)Nc3ccc4cc(CN5CCCCCC5)cnc4c3C)c(F)c2)cc1` had a melting point of 171 to 172 °C.

As for `CCCCCCCCCCCCCCOc1ccc(NC(=O)Nc2cccc(CBr)c2)cc1`, the melting point was in the range of 164 to 169 °C.

As to `COc1ccc(N2CCOCC2)c2sc(NC(=O)N3CCCOCC3)nc12`, the melting point lay in the range of 171 to 172 °C.

Turning to `COc1ccc(/C=C(\C#N)c2ccc(Br)cc2)cc1OC1CCCC1`, the melting point fell in the range of 116 to 119 °C.

`N#Cc1ccc(N2C(=O)NC(CO)(CO)C2=O)cc1C(F)(F)F` had a melting point of 207 to 208 °C.

The molecule `CCc1cc(C#N)c(Cl)nc1C` displayed a melting point of 63 to 64 °C.

For the molecule `CC(C)Oc1cc(CCC(=O)NS(=O)(=O)c2ccccc2)n(Cc2ccc(Cl)cc2Cl)n1`, the melting point is 184 to 185 °C.

As for `C=CCc1c(O)nc(N)nc1O`, the melting point was more than 250 °C.

The molecule `CSCCCCCn1c(CCC(C)=O)nc2c(N)nc3ccccc3c21` yielded a melting point of 179 to 181 °C.

For `N#Cc1c(I)c(C(=O)Cl)c(I)c(C(=O)NCC(O)CO)c1I` (configuration not stated), the melting point is 285 to 288 °C.

Molecule `CC1(C)CC(=O)c2c(C3CC3)sc(C#N)c2C1` gave a melting point of 80 to 83 °C.

`CC(C)(CNC(=O)COCC(=O)O)SN=O` gave a melting point of 81 to 83 °C.

`CCCNCc1ccc(S(=O)(=O)c2ccc(S(N)(=O)=O)s2)cc1` yielded a melting point of 151 to 153 °C.

With `COc1ccc(/C=C/C(=O)C2C(=O)CC(c3ccc(OC)cc3)C([N+](=O)[O-])C2C=Cc2ccccc2)cc1` (configuration not stated), the melting point was in the range of 88 to 90 °C.

In turn, `CCc1ccc(-c2ccc(F)cc2)cc1` yielded a melting point of 60 to 63 °C.

Turning to `O=C(COc1cccnc1)c1ccccc1`, the melting point was in the range of 81 to 82 °C.

In turn, `CC(=CC#N)Cn1sc2ccccc2c1=O` had a melting point of 128 to 130 °C.

The molecule `COc1ccc(S(=O)(=O)Nc2cccnc2Nc2ccc(OC)c(OC)c2)cc1` yielded a melting point of 126 to 127 °C.

`O=C(NC(=O)c1cccs1)NC1CCN(Cc2c[nH]c3ccccc23)CC1` yielded a melting point of 231 to 232 °C.

`CCCCCCCCCC=COC1OC(CO)C(O)C(O)C1NC(C)=O` (configuration not stated): the melting point lay in the range of 152 to 154 °C.

In turn, `Cc1nc(NC(=O)c2cnn3c(C(F)(F)F)cc(-c4ccc(C(F)(F)F)cc4)nc23)sc1S(=O)(=O)NCCN(C)C` showed a melting point of 235 °C.

Regarding `Fc1cc(F)c(-c2c(Cl)nc3nccn3c2N2CCCCCC2)c(F)c1`, the melting point fell in the range of 106 to 108 °C.

Consider `COC(=O)Nc1nc2cc(SCC3CC3(Cl)Cl)ccc2[nH]1` (configuration not stated), for which the melting point was 211 to 213 °C.

As to `CN(C)C(=S)n1c(SC(F)(F)C(F)F)nc(-c2ccccc2)c1-c1ccccc1`, the melting point was in the range of 133 to 134 °C.

Turning to `O=c1[nH]c2ccccc2cc1-c1csc(NS(=O)(=O)c2ccc(Cl)cc2)n1`, the melting point was more than 300 °C.

In turn, `O=C(Cc1ccc(OCc2ccccc2)cc1OCc1ccccc1)N1CCN(Cc2ccccc2)CC1` came in with a melting point of 104 to 106 °C.

As to `C=CCOC(=O)Cn1c(=O)n(S(=O)(=O)c2ccc(Cl)cc2)c(=O)c2ccccc21`, the melting point was in the range of 164 to 166 °C.

`CSC1C(=O)Nc2cc(-c3ccccc3)ccc21` (configuration not stated) yielded a melting point of 177 to 178 °C.

Turning to `CCOC(=O)COc1cc2cc(CC(C)C)sc2c(Cl)c1Cl`, the melting point was in the range of 75 to 76 °C.

As for `CSc1ncc(S(=O)(=O)NC(C)(C)C)c(Nc2cccc(C)c2)n1`, the melting point worked out at 178 °C.

`CCCC1=C([N+](=O)[O-])C(c2cccc3c2OCCC3)c2c[nH]nc2N1` (configuration not stated): the melting point is 234 °C.

With `C=CCn1c(C)nc2c3c(c(C(=O)OC)cc21)CCC1(Cc2ccccc2C1)N3`, the melting point amounted to 142 °C.

The molecule `O=C(Cc1c[nH]c2ccccc12)N1CCN(C(=O)c2cc(C(F)(F)F)cc(C(F)(F)F)c2)[C@H](Cc2ccccc2)C1` returned a melting point of 201 to 210 °C.

In turn, `CC(C)CCC(O)C(CC1CCCCC1)NC(=O)C(Cc1c[nH]cn1)N(C)C(=O)C(Cc1ccccc1)OC(=O)N(C)CCN(C)C(=O)C(C)C` (configuration not stated) had a melting point of 68 to 72 °C.

In turn, `CCc1nc(-c2ccc(Cl)cc2)c(CCC(=O)O)o1` had a melting point of 160 to 161 °C.

`COc1cccc(OC)c1-c1ccc(CC[C@H](NC(=O)c2c(Cl)cccc2Cl)C(=O)O)cc1` yielded a melting point of 105 to 107 °C.

Turning to `CCc1nc(/C=C/c2cn(-c3ccccc3)nc2OCc2ccc(OCc3nc(-c4cccc(-c5noc(=O)[nH]5)c4)oc3C)c(OC)c2)cs1`, the melting point fell in the range of 139 to 140 °C.

`CC(C)C(C(=O)O)c1ccc(O)c([N+](=O)[O-])c1` (configuration not stated) displayed a melting point of 103 to 105 °C.

On to `c1ccc(-c2ncc(-c3ncco3)cn2)cc1`, for which the melting point fell in the range of 175 to 177 °C.

With `CCC(=NNC(=O)C1CC1C)c1cccnc1` (configuration not stated), the melting point was 137 °C.

Turning to `COc1cccc(-c2cc(C3CNC(=O)C3)ccc2OC)c1` (configuration not stated), the melting point lay in the range of 137 to 139 °C.

Consider `Clc1ccc(NN=Cc2cccnc2)cc1`, for which the melting point stood at 186 °C.

`Cc1c(C)c2c(c(C)c1NC(=O)CCCOCc1ccccc1)C(c1ccc(C(C)C)cc1)CO2` (configuration not stated) yielded a melting point of 85 to 86 °C.

`CC(C)n1c(=O)n(CC2CNCCO2)c2ccccc21` (configuration not stated): the melting point stood at 95 °C.

As to `Cc1ccccc1-c1ccc(C(=O)N2Cc3ccc(C(=O)NC(C)CCc4ccccc4)n3Cc3ccccc32)cc1C` (configuration not stated), the melting point fell in the range of 152 to 154 °C.

`CC[C@H](CS[C@@H](CCc1ccccc1C(C)(C)O)c1cccc(C=Cc2ccc3ccc(Cl)cc3n2)c1)C(=O)O` came in with a melting point of 115 to 117 °C.

As for `CN(C)C=C(C#N)C(=O)Nc1ccccc1-n1cccc1`, the melting point was in the range of 167 to 169 °C.

`O=C1C[C@@H]2[C@@H](/C=C/[C@H](CCc3ccccc3)OC3CCCCO3)[C@H](OC(=O)c3ccc(-c4ccccc4)cc3)C[C@@H]2O1` (some centres not stated): the melting point lay within 118 to 119 °C.

For the molecule `CC(C)(C)C(=O)Oc1ccc2c3c(cnc2c1)CCCC3O[Si](C)(C)C(C)(C)C` (configuration not stated), the melting point was in the range of 125 to 126 °C.

`CN1N=CC(=CNCc2ccc(F)cc2F)C1=O`: the melting point fell in the range of 181 to 182 °C.

`COC(=O)c1ccc(C(=O)NCCNC(=O)c2ccc(C(=O)OC)cc2)cc1` came in with a melting point of 297 to 299 °C.

`CNC(=O)c1cc(-c2ccc(OC)cc2)nn(CC=Cc2ccccc2)c1=O` yielded a melting point of 160 to 161 °C.

Turning to `CCOC(=O)C(C(=O)OCC)c1cccc2ccccc12`, the melting point was 57 to 59 °C.

Molecule `Cc1cccc(-c2nc(C(C)C)[nH]c2-c2cccc(-c3cnn(C)c3)c2)n1` returned a melting point of 84 to 86 °C.

In the case of `O=C(NCc1cocn1)c1ccnc(N2CCN(Cc3ccc(F)cc3)C2=O)c1`, the melting point was 197 to 199 °C.

Take `Nc1ncnc2c1ncn2CCCN1CCC(NC(=O)c2ccccc2)CC1`: the melting point lay in the range of 213 to 214 °C.

Turning to `Cc1ccc(-c2ccccc2C(=O)O)cc1C(=O)NCC1CCCCCC1`, the melting point was 188 to 189 °C.

As to `C1=CNC(C(c2ccccc2)c2ccccc2)=C(NCc2ccccc2)C=C1`, the melting point fell in the range of 186 to 187 °C.

`COc1ccc(C=CC(=O)N2CCN(c3nc(N)c4cc(OC)c(OC)cc4n3)CC2)cc1OC`: the melting point came to 140 °C.

`Cc1nc2c(OCc3c(Cl)ccc(S(=O)(=O)N4CCC[C@H]4C(=O)NCCCN)c3Cl)cccn2c1Br` returned a melting point of 75 °C.

For the molecule `O=C(NC[C@H]1CN(c2cc(F)c(N3CCC(n4cnnn4)CC3)c(F)c2)C(=O)O1)C1CC1`, the melting point fell in the range of 162 to 164 °C.

`N#Cc1cc(-c2nc3cncnc3s2)ccc1Oc1cccc(F)c1` returned a melting point of 189 to 190 °C.

The molecule `O=C1NCC(Cc2cccc(F)c2)O1` (configuration not stated) registered a melting point of 77 to 78 °C.

In the case of `CC(CCC(F)C(C)(C)O)C1CCC2C3CC=C4CC(O)CC(O)C4(C)C3CCC12C` (configuration not stated), the melting point was 156 to 158 °C.

On to `CC(=O)C1(COC(=O)Oc2ccccc2)CC2C=CC1CC2` (configuration not stated), for which the melting point is 58 to 60 °C.

In turn, `Cc1cc(CCc2cc(O)c(=O)[nH]n2)ccc1C(F)(F)F` gave a melting point of 174 to 175 °C.

Consider `C=CCn1c2c(c3ccccc31)C(=O)C(Cn1ccnc1C)CC2` (configuration not stated), for which the melting point turned out to be 132 °C.

For the molecule `O=C(O)Cc1ccc2c(c1)Cc1ccccc1CO2`, the melting point is 155 to 157 °C.

Consider `O=C(CCl)Oc1ccc(OC(=O)CCl)cc1`, for which the melting point was 127 to 128 °C.

The molecule `COc1cc(N)ccc1NC1=CC(=O)C(N)=CC1=O` had a melting point of 267 °C.

`Cc1ccc(C(=O)Nc2c(NC(=O)CN3CCCC3)ccc3c2C(=O)c2ccccc2C3=O)cc1` displayed a melting point of 193 to 194 °C.

With `CC(C)(C)OC(=O)N1CC[C@H](c2ccc3c(c2)OCO3)[C@@H](O)C1` (racemic), the melting point worked out at 112 °C.

Regarding `Cc1cc(C=O)ccc1NC(=O)OC(C)(C)C`, the melting point was in the range of 109 to 111 °C.

`COc1ccc(-c2nc3cc(F)ccc3s2)cc1OC(C)=O` displayed a melting point of 190 °C.

The molecule `COc1ccc2c(Cl)c(C(=O)Cl)sc2c1Cl` had a melting point of 174 to 175 °C.

In the case of `O=C(O)C(=O)c1ccccc1Nc1c(Cl)cccc1Cl`, the melting point is 159 to 160 °C.

In turn, `O=C1COc2ccc(C3=Cc4cccnc4SC3c3ccccc3)cc2N1` (configuration not stated) showed a melting point of 242 to 244 °C.

The molecule `O=C(Nc1ccc(F)cc1F)c1cncc(Sc2cccc([N+](=O)[O-])c2)n1` displayed a melting point of 131 to 135 °C.

`OCC1OC(n2c(C(F)(F)F)nc3c(Cl)cc(Cl)cc32)C(O)C1O` (configuration not stated) gave a melting point of 162 °C.

On to `COc1ccc(CO)cc1OCc1nc(-c2ccccc2)oc1C`, for which the melting point fell in the range of 144 to 145 °C.

With `CCCN1c2ccc3c(c2CC1C(N)=O)CC(N)CC3` (single isomer, unassigned; (+)), the melting point stood at 230 °C.

For the molecule `ClCc1coc(C=C2c3ccccc3-c3ccccc32)n1`, the melting point is 175 to 176 °C.

For `COc1ccc(C(=O)c2sc(Nc3ccccc3)nc2NC(=O)Nc2ccc(F)cc2)cc1`, the melting point is 177 to 178 °C.

Molecule `OC1CSC(Oc2cccc(-c3ccncc3Cl)c2)C(O)C1O` (configuration not stated) came in with a melting point of 158 to 161 °C.

Molecule `Cc1nc(-n2cnn(Cc3ccc(F)cc3)c2=O)sc1C(=O)NCc1cccc(N(C)C)c1` yielded a melting point of 149 to 151 °C.

The molecule `CC(=O)ON1C(C)(C)CC(OC(=O)NCCCCCCNC(=O)OC2CC(C)(C)N(OC(C)=O)C(C)(C)C2)CC1(C)C` registered a melting point of 158 to 163 °C.
